The values below come from patent publication US7166590B2, “Amino acid derivatives” (Ono Pharmaceutical Co., Ltd., priority 1997, dated 2007).

Where a name gives a salt, the structure may show the parent alone.

In this experiment the target is T1, N-type calcium channel (Homo sapiens, UniProt Q00975).
T1 construct: endogenous in cells
T1 sequence (Q00975 whole entry): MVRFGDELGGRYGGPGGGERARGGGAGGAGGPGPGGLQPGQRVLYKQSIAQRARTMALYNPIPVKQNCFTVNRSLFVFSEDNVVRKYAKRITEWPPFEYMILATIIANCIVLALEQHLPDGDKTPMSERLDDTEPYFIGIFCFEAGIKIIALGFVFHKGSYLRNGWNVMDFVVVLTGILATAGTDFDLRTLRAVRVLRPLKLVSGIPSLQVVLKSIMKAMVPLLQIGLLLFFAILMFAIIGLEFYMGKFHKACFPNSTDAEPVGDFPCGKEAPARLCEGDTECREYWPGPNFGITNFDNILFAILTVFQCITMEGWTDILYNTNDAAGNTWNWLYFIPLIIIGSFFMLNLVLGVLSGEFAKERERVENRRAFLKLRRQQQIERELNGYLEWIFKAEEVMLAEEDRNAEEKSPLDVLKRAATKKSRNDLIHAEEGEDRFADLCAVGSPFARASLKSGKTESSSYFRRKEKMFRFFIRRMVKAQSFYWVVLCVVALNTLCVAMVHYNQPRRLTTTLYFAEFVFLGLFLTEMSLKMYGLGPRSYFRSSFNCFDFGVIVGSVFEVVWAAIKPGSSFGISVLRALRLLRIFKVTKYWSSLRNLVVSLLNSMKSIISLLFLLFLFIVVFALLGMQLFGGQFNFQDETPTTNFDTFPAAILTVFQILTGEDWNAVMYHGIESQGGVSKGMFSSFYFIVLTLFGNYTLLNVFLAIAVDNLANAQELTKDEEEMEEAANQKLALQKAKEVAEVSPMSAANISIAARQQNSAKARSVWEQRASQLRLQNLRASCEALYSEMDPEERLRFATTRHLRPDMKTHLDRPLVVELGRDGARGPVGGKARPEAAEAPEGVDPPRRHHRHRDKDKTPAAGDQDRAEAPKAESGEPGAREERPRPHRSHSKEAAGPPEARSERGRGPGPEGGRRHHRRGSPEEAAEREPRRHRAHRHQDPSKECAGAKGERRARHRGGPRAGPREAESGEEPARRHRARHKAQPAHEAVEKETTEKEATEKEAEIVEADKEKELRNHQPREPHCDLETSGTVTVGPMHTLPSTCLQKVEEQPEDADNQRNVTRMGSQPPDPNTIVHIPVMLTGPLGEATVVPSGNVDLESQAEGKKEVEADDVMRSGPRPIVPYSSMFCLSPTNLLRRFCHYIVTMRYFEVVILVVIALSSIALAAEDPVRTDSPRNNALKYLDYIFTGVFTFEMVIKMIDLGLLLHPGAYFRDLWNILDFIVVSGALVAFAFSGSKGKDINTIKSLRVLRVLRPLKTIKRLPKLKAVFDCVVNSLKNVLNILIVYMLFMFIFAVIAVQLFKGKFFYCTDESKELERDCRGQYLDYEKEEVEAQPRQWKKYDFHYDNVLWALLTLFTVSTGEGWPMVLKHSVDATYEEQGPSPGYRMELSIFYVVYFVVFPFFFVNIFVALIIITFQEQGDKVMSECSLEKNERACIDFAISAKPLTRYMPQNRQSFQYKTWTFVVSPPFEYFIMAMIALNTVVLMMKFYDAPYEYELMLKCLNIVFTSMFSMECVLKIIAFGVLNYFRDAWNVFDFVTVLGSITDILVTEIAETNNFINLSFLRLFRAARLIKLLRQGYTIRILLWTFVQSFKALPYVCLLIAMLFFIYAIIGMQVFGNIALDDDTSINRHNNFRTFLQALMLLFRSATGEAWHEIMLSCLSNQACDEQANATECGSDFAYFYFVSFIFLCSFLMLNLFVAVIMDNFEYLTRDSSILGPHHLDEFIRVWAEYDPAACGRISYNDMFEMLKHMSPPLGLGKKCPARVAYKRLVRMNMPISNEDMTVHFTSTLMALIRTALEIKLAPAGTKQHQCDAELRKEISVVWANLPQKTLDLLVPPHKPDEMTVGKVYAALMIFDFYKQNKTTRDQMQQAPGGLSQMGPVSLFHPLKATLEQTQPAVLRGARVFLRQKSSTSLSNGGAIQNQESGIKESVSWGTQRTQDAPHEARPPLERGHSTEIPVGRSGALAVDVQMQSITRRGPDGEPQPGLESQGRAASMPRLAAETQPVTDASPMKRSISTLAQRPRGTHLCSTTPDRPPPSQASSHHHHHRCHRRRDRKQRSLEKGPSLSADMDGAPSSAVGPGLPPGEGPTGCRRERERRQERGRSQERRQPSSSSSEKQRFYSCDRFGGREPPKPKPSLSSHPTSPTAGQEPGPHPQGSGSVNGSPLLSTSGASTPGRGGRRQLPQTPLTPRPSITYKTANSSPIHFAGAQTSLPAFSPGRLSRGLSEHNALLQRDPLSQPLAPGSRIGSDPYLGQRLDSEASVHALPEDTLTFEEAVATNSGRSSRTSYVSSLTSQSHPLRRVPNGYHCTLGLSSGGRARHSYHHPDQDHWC
The experiment can be described thus: Determination of inhibitory activity on N-type calcium channel (Fura-2 calcium influx, KCl depolarization, with nifedipine). To be noted: compound at final concentration of 3 μM, depolarized by 80 mM potassium chloride, Fura-2 fluorescence, read-out: Inhibitory activity on Ca influx (%). The class given is cell-based. On the procedure:
Determination of Inhibitory Activity on N-Type Calcium Channel:
Cell line was differentiated according to the method described in FEBS Letters, 235, 178-182, 1988. The cell was loaded with fluorescent reagent, Fura-2•AM (at the final concentration of 10 μM), at 37° C. for 30 minutes and suspended in Krebs-buffer containing HEPES (25 mM) to obtain the cell suspension. The obtained cell suspension was incubated in the presence or absence of the compounds of the present invention with nifedipine for 5 minutes. The cell was depolarized by adding potassium chloride solution (at the final concentration of 80 mM) thereto and then a fluorescence intensity at the emission wavelength of 500 nm excited by the UV of 340 nm and 380 nm alternately was measured using the intracellular calcium analyzer (Nippon Bunko Co., CAF-110). The inhibitory activity of the compound of the present invention (at the final concentration of 3 μM) on calcium influx into the cell was calculated from the difference in changing the fluorescence intensity at peak (ΔR) according to the following equation. [formula]
For `COc1ccc(CNC(=O)[C@H](COCC2CCCCC2)NS(=O)(=O)c2ccccc2)cc1` [Example 6(22), (2S)-N-(4-methoxybenzyl)-3-cyclohexylmethoxy-2-phenylsulfonylamino-propanamide], the inhibition at 3 µM is 79%. Take `CC(C)(C)OC(=O)N[C@@H](COCC1CCCCC1)C(=O)NCc1ccc([N+](=O)[O-])cc1` [Example 2(86), (2S)-N-(4-nitrobenzyl)-3-cyclohexylmethoxy-2-t-butoxycarbonylamino-propanamide]: the inhibition at 3 µM came out at 83%. Turning to `O=C(N[C@@H](CSCC1CCCCC1)C(=O)NCc1ccc(Oc2ccccc2)cc1)[C@@H]1CSCN1` [Example 9(13), (2R)-N-(4-phenoxybenzyl)-3-cyclohexylmethylthio-2-((4R)-thiazolidin-4-ylcarbonylamino)propanamide.hydrochloride], the inhibition at 3 µM was determined as 88%.

For `CC(C)(C)OC(=O)N[C@@H](CCC(=O)OCc1ccc([N+](=O)[O-])cc1)C(=O)OC1CCCC1` [Example 2(29), (2S)-4-(4-nitrobenzyloxycarbonyl)-2-t-butoxycarbonylaminobutanoic acid.cyclopentyl ester], the inhibition at 3 µM stood at 75%. The result for `COc1ccc(CNC(=O)[C@H](CSCC2CCCCC2)NC(=O)[C@@H]2CSCN2C(=O)OC(C)(C)C)cc1` [Example 6(44), (2R)-N-(4-methoxybenzyl)-3-cyclohexylmethylthio-2-((4R)-3-t-butoxycarbonyl-thiazolidin-4-ylcarbonylamino)propanamide] reads 86%; that for `COc1ccc(CNC(=O)[C@H](COCC2CCCCC2)NC(=O)OC(C)(C)C)cc1` [compound 2], 75%; that for `COc1ccc(CNC(=O)[C@H](CSCC2CCCCC2)NC(=O)OC(C)(C)C)cc1` [Example 2(80), (2R)-N-(4-methoxybenzyl)-3-cyclohexylmethylthio-2-t-butoxycarbonylamino-propanamide], 87%. Take `CC(C)(C)OC(=O)N1CSC[C@H]1C(=O)N[C@@H](CSCC1CCCCC1)C(=O)NCc1ccc(Oc2ccccc2)cc1` [Example 6(68), (2R)-N-(4-penoxybenzyl)-3-cyclohexylmethylthio-2-((4R)-3-t-butoxycarbonyl-thiazolidin-4-ylcarbonylamino)propanamide]: the inhibition at 3 µM was found to be 73%.

As for `COc1ccc(CNC(=O)[C@H](COCC2CCCCC2)NC(=O)C2CCCCC2)cc1` [Example 6(27), (2S)-N-(4-methoxybenzyl)-3-cyclohexylmethoxy-2-cyclohexylcarbonylamino-propanamide], the inhibition at 3 µM turned out to be 72%.
